# In ChEMBL document CHEMBL1201862, “PubChem BioAssay data set” (2004):
#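 Cultured in 96-well plates, cells were exposed to test compound for 48 hours across five concentrations. GI50 marks 50% less growth.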 Active and inactive are the calls of the source. Cut-off read from the data, not from the text of the source: active = GI50 up to about 1.1 µM and inactive = higher.
# Key:
# Test in all cases: inhibition of tumour cell growth, NCI panel, 48 h
# [1] = test system: SF-295
# [2] = test system: 786-0
# [3] = test system: KM12
# [4] = test system: UACC-257
# [5] = test system: DLD-1
# [6] = test system: DMS-273
# [7] = test system: HOP-92
# [8] = test system: Malme-3M
# [9] = test system: NCI-H23
# [10] = test system: RXF 393
# [11] = test system: SK-MEL-2
# [12] = test system: TK-10
# [13] = test system: U-251
# [14] = test system: UO-31
# [15] = test system: RXF 631
# [16] = test system: EKVX
# [17] = test system: OVCAR-5
# [18] = test system: NCI-H460
# [19] = test system: UACC-62
# [20] = test system: SF-539
# [21] = test system: DMS-114
# [22] = test system: OVCAR-3
# [23] = test system: CCRF-CEM
# [24] = test system: K562
# [25] = test system: M14
# [26] = test system: HT-29
# [27] = test system: KM-20L2
# [28] = test system: HCC 2998
# [29] = test system: SW-620
# [30] = test system: HCT-15
# [31] = test system: SK-MEL-28
# [32] = test system: MOLT-4
# [33] = test system: SF-268
# [34] = test system: OVCAR-4
# [35] = test system: NCI-H522
# [36] = test system: SN12C
# [37] = test system: LOX IMVI
# [38] = test system: HCT-116
# [39] = test system: SNB-19
# [40] = test system: HL-60
# [41] = test system: RPMI-8226
# [42] = test system: ACHN
# [43] = test system: SK-MEL-5
# [44] = test system: IGROV-1
# [45] = test system: XF498
# [46] = test system: SNB-78
# [47] = test system: LXFL 529
# [48] = test system: COLO 205
# [49] = test system: A549
# [50] = test system: OVCAR-8
# [51] = test system: HOP-62
# [52] = test system: M19-MEL
# [53] = test system: A498
# [54] = test system: CAKI-1
# [55] = test system: SK-OV-3
# [56] = test system: NCI-H226
# [57] = test system: SR
# [58] = test system: SNB-75
structure (smiles),measurement,setting,value
N#Cc1cccc(N2C(=O)c3c(c(-c4ccccc4)c(-c4ccc(Sc5ccc(-c6c(-c7ccccc7)c7c(c(-c8ccccc8)c6-c6ccccc6)C(=O)N(c6cccc(C#N)c6)C7=O)cc5)cc4)c(-c4ccccc4)c3-c3ccccc3)C2=O)c1,GI50,[1],> 100 µM (inactive)
same,GI50,[2],> 100 µM (inactive)
same,GI50,[3],> 100 µM (inactive)
same,GI50,[4],> 100 µM (inactive)
same,GI50,[5],> 100 µM (inactive)
same,GI50,[6],> 100 µM (inactive)
same,GI50,[7],3.92 µM (inactive)
same,GI50,[8],> 100 µM (inactive)
same,GI50,[9],> 100 µM (inactive)
same,GI50,[10],16.9 µM (inactive)
same,GI50,[11],> 100 µM (inactive)
same,GI50,[12],51.8 µM (inactive)
same,GI50,[13],21.2 µM (inactive)
same,GI50,[14],91.8 µM (inactive)
same,GI50,[15],> 100 µM (inactive)
same,GI50,[16],35.8 µM (inactive)
same,GI50,[17],> 100 µM (inactive)
same,GI50,[18],> 100 µM (inactive)
same,GI50,[19],61.7 µM (inactive)
same,GI50,[20],65.2 µM (inactive)
same,GI50,[21],89.5 µM (inactive)
same,GI50,[22],> 100 µM (inactive)
same,GI50,[23],> 100 µM (inactive)
same,GI50,[24],> 100 µM (inactive)
same,GI50,[25],> 100 µM (inactive)
same,GI50,[26],> 100 µM (inactive)
same,GI50,[27],> 100 µM (inactive)
same,GI50,[28],> 100 µM (inactive)
same,GI50,[29],> 100 µM (inactive)
same,GI50,[30],43.8 µM
same,GI50,[31],> 100 µM (inactive)
same,GI50,[32],49.2 µM (inactive)
same,GI50,[33],55.7 µM (inactive)
same,GI50,[34],> 100 µM (inactive)
same,GI50,[35],> 100 µM (inactive)
same,GI50,[36],23.9 µM (inactive)
same,GI50,[37],78.2 µM (inactive)
same,GI50,[38],65.2 µM (inactive)
same,GI50,[39],29.3 µM (inactive)
same,GI50,[40],> 100 µM (inactive)
same,GI50,[41],> 100 µM (inactive)
same,GI50,[42],> 100 µM (inactive)
same,GI50,[43],77.6 µM (inactive)
same,GI50,[44],28.8 µM (inactive)
same,GI50,[45],30.5 µM (inactive)
same,GI50,[46],35.1 µM (inactive)
same,GI50,[47],37.7 µM (inactive)
same,GI50,[48],> 100 µM (inactive)
same,GI50,[49],> 100 µM (inactive)
same,GI50,[50],45.9 µM (inactive)
same,GI50,[51],89.3 µM (inactive)
C=C1c2[nH]c3ccccc3c2CC(C(=O)O)N1C(O)c1ccc(S(=O)(=O)O)cc1 (centres undefined),GI50,[1],> 100 µM (inactive)
same,GI50,[2],> 100 µM (inactive)
same,GI50,[3],> 100 µM (inactive)
same,GI50,[4],> 100 µM (inactive)
same,GI50,[5],> 100 µM (inactive)
same,GI50,[52],> 100 µM (inactive)
same,GI50,[6],> 100 µM (inactive)
same,GI50,[7],22.1 µM (inactive)
same,GI50,[8],> 100 µM (inactive)
same,GI50,[9],> 100 µM (inactive)
same,GI50,[10],> 100 µM (inactive)
same,GI50,[11],> 100 µM (inactive)
same,GI50,[12],> 100 µM (inactive)
same,GI50,[13],> 100 µM (inactive)
same,GI50,[53],> 100 µM (inactive)
same,GI50,[14],> 100 µM (inactive)
same,GI50,[15],> 100 µM (inactive)
same,GI50,[54],> 100 µM (inactive)
same,GI50,[55],> 100 µM (inactive)
same,GI50,[56],42.9 µM (inactive)
same,GI50,[17],> 100 µM (inactive)
same,GI50,[18],> 100 µM (inactive)
same,GI50,[19],> 100 µM (inactive)
same,GI50,[20],> 100 µM (inactive)
same,GI50,[21],> 100 µM (inactive)
same,GI50,[22],> 100 µM (inactive)
same,GI50,[57],> 100 µM (inactive)
same,GI50,[23],> 100 µM (inactive)
same,GI50,[24],> 100 µM (inactive)
same,GI50,[25],> 100 µM (inactive)
same,GI50,[26],> 100 µM (inactive)
same,GI50,[28],> 100 µM (inactive)
same,GI50,[29],> 100 µM (inactive)
same,GI50,[58],65.6 µM (inactive)
same,GI50,[31],> 100 µM (inactive)
same,GI50,[32],> 100 µM (inactive)
same,GI50,[33],> 100 µM (inactive)
same,GI50,[34],> 100 µM (inactive)
same,GI50,[35],> 100 µM (inactive)
same,GI50,[36],> 100 µM (inactive)
same,GI50,[37],> 100 µM (inactive)
same,GI50,[38],> 100 µM (inactive)
same,GI50,[39],> 100 µM (inactive)
same,GI50,[40],> 100 µM (inactive)
same,GI50,[41],> 100 µM (inactive)
same,GI50,[42],> 100 µM (inactive)
same,GI50,[43],> 100 µM (inactive)
same,GI50,[45],> 100 µM (inactive)
same,GI50,[46],> 100 µM (inactive)
same,GI50,[47],> 100 µM (inactive)
same,GI50,[49],> 100 µM (inactive)
same,GI50,[50],> 100 µM (inactive)
same,GI50,[51],> 100 µM (inactive)
